Measurements from ChEMBL document CHEMBL1121463, “N-Acetyl-[2-(O-methyl)tyrosine]arginine-vasopressin, an interesting antagonist of the vasopressor response to vasopressin” (J Med Chem, 1980).
Where a SMILES comes first, the peptide text is derived from it. Bridges are numbered along the chain shown (N, C = ends).

What was measured:
Rattus norvegicus [1] = organism: Rattus norvegicus; experiment: Tested for anti-oxytocic activity against isolated rat uterus; type: functional; details: read-out: pA2 (converted)
Rattus norvegicus [2] = organism: Rattus norvegicus; experiment: Tested for anti-oxytocic activity against isolated rat uterus; Showed both agonistic and antagonistic activities; type: functional
Rattus norvegicus [3] = organism: Rattus norvegicus; experiment: Compound was tested for anti-vasopressor activity against rat; Weak; type: functional, organism-based
Rattus norvegicus [4] = organism: Rattus norvegicus; experiment: Tested for antidiuretic activity against rats; type: functional, Urine
Rattus norvegicus [5] = organism: Rattus norvegicus; experiment: The vasopressor value (agonistic) of compound was tested on rat […]; type: functional
Rattus norvegicus [6] = organism: Rattus norvegicus; experiment: The anti-oxytocic pA2 value (antagonistic) of compound was tested on isolated rat uterus (with the 0.5 mM Mg+2); type: functional; details: read-out: pA2 (converted)
Rattus norvegicus [7] = organism: Rattus norvegicus; experiment: Compound was tested for anti-vasopressor activity against rat; type: functional, organism-based; details: read-out: pA2 (converted)
Rattus norvegicus [8] = organism: Rattus norvegicus; experiment: Compound was tested for antidiuretic activity in rats; type: ADME, organism-based, Urine; details: in vivo
Rattus norvegicus [9] = organism: Rattus norvegicus; experiment: Compound was tested for anti-vasopressor activity against rat; Inhibitor; type: functional, organism-based

Which Kb (Rattus norvegicus [1]) does the source give for `CC[C@H](C)[C@@H]1NC(=O)[C@H](Cc2ccc(OC)cc2)NC(=O)[C@@H](NC(=O)CN)CSSC[C@@H](C(=O)N2CCC[C@H]2C(=O)N[C@@H](CC(C)C)C(=O)NCC(N)=O)NC(=O)[C@H](CC(N)=O)NC(=O)[C@H](CCC(N)=O)NC1=O` (H-GCY(Me)IQNCPLG-NH2; disulfide 2-7) here?
Its Kb is 141 nM.

How did the pA2 (Rattus norvegicus [2]) turn out when `CC[C@H](C)[C@@H]1NC(=O)[C@@H](Cc2ccc(OC)cc2)NC(=O)[C@H](N)CSSC[C@@H](C(=O)N2CCC[C@@H]2C(=O)N[C@@H](CC(C)C)C(=O)NCC(N)=O)NC(=O)[C@H](CC(N)=O)NC(=O)[C@@H](CCC(N)=O)NC1=O` was run?
The pA2 was “Mixed”.

And the pA2 (Rattus norvegicus [3])?
Its pA2 is “Weak”.

Which Antidiuretic (Rattus norvegicus [4]) does the source give for `COc1ccc(C[C@@H]2NC(=O)[C@@H](N)CSSC[C@@H](C(=O)N3CCC[C@H]3C(=O)N[C@@H](CCCN=C(N)N)C(=O)NCC(N)=O)NC(=O)[C@H](CC(N)=O)NC(=O)[C@H](CCC(N)=O)NC(=O)[C@H](Cc3ccccc3)NC2=O)cc1` [listing 1 of 2 here] here?
The Antidiuretic was 386 U/mg.

What about the Vasopressor activity (Rattus norvegicus [5]) of the same molecule?
The Vasopressor activity was 9.7 units/mg.

With `CC[C@H](C)[C@@H]1NC(=O)[C@H](Cc2ccc(OC)cc2)NC(=O)[C@@H](NC(C)=O)CSSC[C@@H](C(=O)N2CCC[C@H]2C(=O)N[C@@H](CC(C)C)C(=O)NCC(N)=O)NC(=O)[C@H](CC(N)=O)NC(=O)[C@H](CCC(N)=O)NC1=O` as the molecule, how does the Kb (Rattus norvegicus [1]) read?
The Kb was 26.3 nM.

For `COc1ccc(C[C@@H]2NC(=O)[C@@H](N)CSSC[C@@H](C(=O)N3CCC[C@H]3C(=O)N[C@@H](CCCN=C(N)N)C(=O)NCC(N)=O)NC(=O)[C@H](CC(N)=O)NC(=O)[C@H](CCC(N)=O)NC(=O)[C@H](Cc3ccccc3)NC2=O)cc1` [listing 2 of 2 here], which Kb (Rattus norvegicus [1]) is on record?
The Kb was 36.3 nM.

What about the Kb (Rattus norvegicus [6]) of the same molecule?
Its Kb is 457 nM.

What does the source list for `COc1ccc(C[C@@H]2NC(=O)[C@@H](NC(C)=O)CSSC[C@@H](C(=O)N3CCC[C@H]3C(=O)N[C@@H](CCCN=C(N)N)C(=O)NCC(N)=O)NC(=O)[C@H](CC(N)=O)NC(=O)[C@H](CCC(N)=O)NC(=O)[C@H](Cc3ccccc3)NC2=O)cc1` [listing 1 of 2 here]?
Kb (Rattus norvegicus [1]): 51.3 nM; Kb (Rattus norvegicus [6]): 186 nM; Kb (Rattus norvegicus [7]): 66.1 nM

`NC(=O)CC[C@@H]1NC(=O)[C@H](Cc2ccccc2)NC(=O)[C@H](Cc2ccc(O)cc2)NC(=O)[C@@H](N)CSSC[C@@H](C(=O)N2CCC[C@H]2C(=O)N[C@@H](CCCN=C(N)N)C(=O)NCC(N)=O)NC(=O)[C@H](CC(N)=O)NC1=O` (stereo in doubt; form 2) [VASOPRESSIN] was tested. Which Antidiuretic (Rattus norvegicus [8]) did it give?
Its Antidiuretic is 212 U/mg.

How did the pA2 (Rattus norvegicus [9]) turn out when `CC[C@H](C)[C@@H]1NC(=O)[C@@H](Cc2ccc(OC)cc2)NC(=O)[C@H](NC(C)=O)CSSC[C@@H](C(=O)N2CCC[C@@H]2C(=O)N[C@@H](CC(C)C)C(=O)NCC(N)=O)NC(=O)[C@H](CC(N)=O)NC(=O)[C@@H](CCC(N)=O)NC1=O` was run?
The pA2 was “Inhibition”.

How did the Antidiuretic (Rattus norvegicus [8]) turn out when `NC(=O)CC[C@@H]1NC(=O)[C@H](Cc2ccccc2)NC(=O)[C@H](Cc2ccc(O)cc2)NC(=O)[C@@H](N)CSSC[C@@H](C(=O)N2CCC[C@H]2C(=O)N[C@@H](CCCN=C(N)N)C(=O)NCC(N)=O)NC(=O)[C@H](CC(N)=O)NC1=O` (stereo in doubt; form 1) [VASOPRESSIN] was run?
Its Antidiuretic is 323 U/mg.

`CC[C@H](C)[C@@H]1NC(=O)[C@H](Cc2ccc(O)cc2)NC(=O)[C@@H](N)CSSC[C@@H](C(=O)N2CCC[C@H]2C(=O)N[C@@H](CC(C)C)C(=O)NCC(N)=O)NC(=O)[C@H](CC(N)=O)NC(=O)[C@H](CCC(N)=O)NC1=O` [OXYTOCIN] was tested. Which Antidiuretic (Rattus norvegicus [8]) did it give?
Its Antidiuretic is 4 U/mg.

For `CC[C@H](C)[C@@H]1NC(=O)[C@H](Cc2ccc(OC)cc2)NC(=O)[C@@H](NC(=O)CNC)CSSC[C@@H](C(=O)N2CCC[C@H]2C(=O)N[C@@H](CC(C)C)C(=O)NCC(N)=O)NC(=O)[C@H](CC(N)=O)NC(=O)[C@H](CCC(N)=O)NC1=O`, which Kb (Rattus norvegicus [1]) is on record?
The Kb was 302 nM.

How did the pA2 (Rattus norvegicus [9]) turn out when `CC[C@H](C)[C@@H]1NC(=O)[C@@H](Cc2ccc(OC)cc2)NC(=O)[C@H](NC(N)=O)CSSC[C@@H](C(=O)N2CCC[C@@H]2C(=O)N[C@@H](CC(C)C)C(=O)NCC(N)=O)NC(=O)[C@H](CC(N)=O)NC(=O)[C@@H](CCC(N)=O)NC1=O` was run?
The pA2 was “Inhibition”.

Which Antidiuretic (Rattus norvegicus [4]) does the source give for `CC[C@H](C)[C@@H]1NC(=O)[C@H](Cc2ccc(OC)cc2)NC(=O)[C@@H](N)CSSC[C@@H](C(=O)N2CCC[C@H]2C(=O)N[C@@H](CC(C)C)C(=O)NCC(N)=O)NC(=O)[C@H](CC(N)=O)NC(=O)[C@H](CCC(N)=O)NC1=O` here?
Its Antidiuretic is 0.01 U/mg.

With `CC[C@H](C)[C@@H]1NC(=O)[C@H](Cc2ccc(OC)cc2)NC(=O)[C@@H](NC(N)=O)CSSC[C@@H](C(=O)N2CCC[C@H]2C(=O)N[C@@H](CC(C)C)C(=O)NCC(N)=O)NC(=O)[C@H](CC(N)=O)NC(=O)[C@H](CCC(N)=O)NC1=O` as the molecule, how does the Kb (Rattus norvegicus [1]) read?
The Kb was 60.3 nM.

With `COc1ccc(C[C@@H]2NC(=O)[C@@H](NC(C)=O)CSSC[C@@H](C(=O)N3CCC[C@H]3C(=O)N[C@@H](CCCN=C(N)N)C(=O)NCC(N)=O)NC(=O)[C@H](CC(N)=O)NC(=O)[C@H](CCC(N)=O)NC(=O)[C@H](Cc3ccccc3)NC2=O)cc1` [listing 2 of 2 here] as the molecule, how does the Antidiuretic (Rattus norvegicus [4]) read?
Its Antidiuretic is 0.026 U/mg.
